From patent US6737383B1, “Herbicidal oxadiazolidines” (priority 1999, dated 2004)

Experiments:
bedstraw = assay: Test B pre/postemergence bedstraw; assay type: in vivo, Galium aparine
Summary of the method: (§1)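 Herbicidal effect was estimated by eye on a ten-point control scale after plants spent twelve to sixteen days in a greenhouse following soil or foliar treatment. Foliar sprays targeted plants at one to four leaves; all doses were formulated in a non-phytotoxic solvent with surfactant.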

blackgrass = assay: Test B pre/postemergence blackgrass; assay type: in vivo, Alopecurus myosuroides
Summary of the method: as §1

surinam grass = assay: Test B pre/postemergence surinam grass; assay type: in vivo, Brachiaria decumbens
Summary of the method: as §1

cocklebur = assay: Test B pre/postemergence cocklebur; assay type: in vivo, Xanthium strumarium
Summary of the method: as §1

corn = assay: Test B pre/postemergence corn; assay type: in vivo, Zea mays
Summary of the method: as §1

crabgrass = assay: Test B pre/postemergence crabgrass; assay type: in vivo, Digitaria sanguinalis
Summary of the method: as §1

giant foxtail = assay: Test B pre/postemergence giant foxtail; assay type: in vivo, Setaria faberii
Summary of the method: as §1

morningglory = assay: Test B pre/postemergence morningglory; assay type: in vivo, Ipomoea hederacea
Summary of the method: as §1

pigweed = assay: Test B pre/postemergence pigweed; assay type: in vivo, Amaranthus retroflexus
Summary of the method: as §1

rape = assay: Test B pre/postemergence rape; assay type: in vivo, Brassica napus
Summary of the method: as §1

sugar beet = assay: Test B pre/postemergence sugar beet; assay type: in vivo, Beta vulgaris
Summary of the method: as §1

wheat = assay: Test B pre/postemergence wheat; assay type: in vivo, Triticum aestivum
Summary of the method: as §1

wild oat = assay: Test B pre/postemergence wild oat; assay type: in vivo, Avena fatua
Summary of the method: as §1

purple nutsedge = assay: Test B pre/postemergence purple nutsedge; assay type: in vivo, Cyperus rotundus
Summary of the method: as §1

rice = assay: Test B flood test rice; assay type: in vivo, Oryza sativa
Summary of the method: (§2)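 Read-out is a visual response score from 0 (no effect) to 10 (complete control), assigned by comparison with untreated controls. Treatment was applied at the 2-leaf stage, and plants stayed in the greenhouse for twelve to sixteen days before scoring.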

bamyardgrass = assay: Test B flood test barnyardgrass; assay type: in vivo, Echinochloa crus-galli
Summary of the method: as §2

[1] = Postemergence, Rate 125 g/ha, scale of 0 to 10 where 0 is no effect and 10 is complete control
[2] = Preemergence, Rate 31 g/ha, visual rating, scale 0 to 10 (0 no effect, 10 complete control)
[3] = Preemergence, Rate 62 g/ha, scale 0 to 10 (0 no effect, 10 complete control)
[4] = Preemergence, Rate 125 g/ha, 0 is no effect, 10 is complete control
[5] = Preemergence, Rate 250 g/ha, scale 0 to 10, 0 is no effect, 10 is complete control
[6] = Preemergence, Rate 500 g/ha, scale 0 to 10 (0 no effect, 10 complete control)
[7] = Rate 31 g/ha, Postemergence, scale 0 to 10
[8] = Rate 62 g/ha, Postemergence, scale of 0 to 10 where 0 is no effect and 10 is complete control
[9] = Rate 250 g/ha, Postemergence, scale 0 to 10, 0 is no effect, 10 is complete control
[10] = Rate 500 g/ha, Postemergence, scale 0 to 10
[11] = Postemergence (flood test species), Rate 125 g/ha, scale of 0 to 10 where 0 is no effect and 10 is complete control
[12] = Rate 31 g/ha, Postemergence section (flood test species), scale 0 to 10
[13] = Rate 62 g/ha, Postemergence section, flood test species, scale of 0 to 10 where 0 is no effect and 10 is complete control
[14] = Rate 62 g/ha, headed Pre-emergence (flood test species), scale 0 to 10 (0 no effect, 10 complete control)
[15] = Rate 125 g/ha, Pre-emergence, flood test species, scale 0 to 10 where 0 is no effect and 10 is complete control
[16] = Rate 250 g/ha, Postemergence (flood test), scale 0 to 10, 0 is no effect, 10 is complete control
[17] = Rate 250 g/ha, Pre-emergence, flood-test species, scale 0 to 10, 0 is no effect, 10 is complete control
[18] = Rate 500 g/ha, headed Pre-emergence (flood test species), scale 0 to 10 (0 no effect, 10 complete control)

C=CCn1c(=O)on(C(=O)N(c2ccc(F)cc2)C(C)C)c1=O [Compound 146]
3: Plant response rating, Cocklebur (cocklebur; [9]) | Corn plant response rating (corn; [3]) | Giant foxtail plant response rating (giant foxtail; [7]) | Morningglory plant response rating (0 to 10 scale) (morningglory; [4]) | Morningglory plant response rating (morningglory; [5]) | Morningglory plant response rating (morningglory; [8]) | Plant response rating, Rape (rape; [9]) | Sugarbeets plant response rating (sugar beet; [1]) | Wild oats plant response rating (wild oat; [1]) | Nutsedge plant response rating (purple nutsedge; [6])
1: Sugarbeets plant response rating (sugar beet; [8]) | Wild oats plant response rating (wild oat; [2]) | Plant response rating, Barnyardgrass (bamyardgrass; [16]) | Barnyardgrass plant response rating (bamyardgrass; [17])
8: Bedstraw plant response rating (bedstraw; Rate 500 g/ha, Postemergence, scale 0 to 10, 0 no effect, 10 complete control) | Blackgrass plant response rating (blackgrass; [1]) | Blackgrass plant response rating (blackgrass; [3]) | Blackgrass plant response rating (blackgrass; [8]) | Plant response rating, Blackgrass (blackgrass; [9]) | Blackgrass plant response rating (blackgrass; [10]) | B. signalgrass plant response rating (surinam grass; [1]) | Plant response rating, B. signalgrass (surinam grass; [9]) | Corn plant response rating (corn; [5]) | Crabgrass plant response rating (crabgrass; [3]) | Crabgrass plant response rating (0 to 10 scale) (crabgrass; [4]) | Crabgrass plant response rating (crabgrass; [8]) | Giant foxtail plant response rating (giant foxtail; [8]) | Plant response rating, Morningglory (morningglory; [9]) | Redroot pigweed plant response rating (pigweed; [10]) | Sugarbeets plant response rating (sugar beet; [3]) | Wheat plant response rating (wheat; [5]) | Wheat plant response rating (wheat; [6])
6: Bedstraw plant response rating (bedstraw; [1]) | Redroot pigweed plant response rating (pigweed; [1]) | Plant response rating, Redroot pigweed (pigweed; [9]) | Sugarbeets plant response rating (sugar beet; [10]) | Wheat plant response rating (wheat; [10]) | Plant response rating, Wild oats (wild oat; [9]) | Nutsedge plant response rating (purple nutsedge; [10])
7: Bedstraw plant response rating (bedstraw; [6]) | Plant response rating, Bedstraw (bedstraw; [9]) | Blackgrass plant response rating (blackgrass; [2]) | B. signalgrass plant response rating (surinam grass; [2]) | Wild oats plant response rating (wild oat; [10]) | Rice plant response rating (rice; Rate 500 g/ha, listed under Postemergence (flood test species), scale 0 to 10)
4: Blackgrass plant response rating (blackgrass; [7]) | B. signalgrass plant response rating (surinam grass; [8]) | Cocklebur plant response rating (cocklebur; [10]) | Morningglory plant response rating (morningglory; [6]) | Redroot pigweed plant response rating (pigweed; [8]) | Plant response rating, Sugarbeets (sugar beet; [9])
2: Bedstraw plant response rating (bedstraw; [8]) | Cocklebur plant response rating (cocklebur; [1]) | Cocklebur plant response rating (cocklebur; [8]) | Morningglory plant response rating (morningglory; [3]) | Morningglory plant response rating (morningglory; [7]) | Rape plant response rating (rape; [1]) | Rape plant response rating (rape; [3]) | Rape plant response rating (rape; [8]) | Wheat plant response rating (wheat; [1]) | Wheat plant response rating (wheat; [3]) | Wheat plant response rating (0 to 10 scale) (wheat; [4]) | Wild oats plant response rating (wild oat; [8]) | Plant response rating, Rice (rice; [16])
10: Bedstraw plant response rating (bedstraw; [5]) | Blackgrass plant response rating (0 to 10 scale) (blackgrass; [4]) | Blackgrass plant response rating (blackgrass; [5]) | Blackgrass plant response rating (blackgrass; [6]) | B. signalgrass plant response rating (surinam grass; [5]) | B. signalgrass plant response rating (surinam grass; [6]) | Crabgrass plant response rating (crabgrass; [6]) | Giant foxtail plant response rating (giant foxtail; [3]) | Giant foxtail plant response rating (0 to 10 scale) (giant foxtail; [4]) | Giant foxtail plant response rating (giant foxtail; [5]) | Giant foxtail plant response rating (giant foxtail; [6]) | Redroot pigweed plant response rating (pigweed; [2]) | Redroot pigweed plant response rating (pigweed; [3]) | Redroot pigweed plant response rating (0 to 10 scale) (pigweed; [4]) | Redroot pigweed plant response rating (pigweed; [5]) | Redroot pigweed plant response rating (pigweed; [6]) | Rape plant response rating (0 to 10 scale) (rape; [4]) | Rape plant response rating (rape; [5]) | Rape plant response rating (rape; [6]) | Sugarbeets plant response rating (sugar beet; [5]) | Sugarbeets plant response rating (sugar beet; [6]) | Wild oats plant response rating (0 to 10 scale) (wild oat; [4]) | Wild oats plant response rating (wild oat; [5]) | Wild oats plant response rating (wild oat; [6])
9: Bedstraw plant response rating (bedstraw; [3]) | Bedstraw plant response rating (0 to 10 scale) (bedstraw; [4]) | B. signalgrass plant response rating (surinam grass; [3]) | B. signalgrass plant response rating (0 to 10 scale) (surinam grass; [4]) | B. signalgrass plant response rating (surinam grass; Rate 500 g/ha, Postemergence, scale of 0 to 10 where 0 is no effect and 10 is complete control) | Corn plant response rating (corn; [6]) | Crabgrass plant response rating (crabgrass; [1]) | Crabgrass plant response rating (crabgrass; [5]) | Plant response rating, Crabgrass (crabgrass; [9]) | Crabgrass plant response rating (crabgrass; [10]) | Giant foxtail plant response rating (giant foxtail; [1]) | Giant foxtail plant response rating (giant foxtail; [2]) | Plant response rating, Giant foxtail (giant foxtail; [9]) | Giant foxtail plant response rating (giant foxtail; [10]) | Morningglory plant response rating (morningglory; [10]) | Sugarbeets plant response rating (0 to 10 scale) (sugar beet; [4]) | Wild oats plant response rating (wild oat; [3]) | Barnyardgrass plant response rating (bamyardgrass; Rate 500 g/ha, listed under Postemergence (flood test species), scale 0 to 10, 0 no effect, 10 complete control)
0: Bedstraw plant response rating (bedstraw; [2]) | Bedstraw plant response rating (bedstraw; [7]) | B. signalgrass plant response rating (surinam grass; [7]) | Cocklebur plant response rating (cocklebur; [2]) | Cocklebur plant response rating (cocklebur; [3]) | Cocklebur plant response rating (0 to 10 scale) (cocklebur; [4]) | Cocklebur plant response rating (cocklebur; [5]) | Cocklebur plant response rating (cocklebur; [6]) | Cocklebur plant response rating (cocklebur; [7]) | Corn plant response rating (corn; [1]) | Corn plant response rating (corn; [2]) | Corn plant response rating (corn; [7]) | Corn plant response rating (corn; [8]) | Plant response rating, Corn (corn; [9]) | Corn plant response rating (corn; [10]) | Morningglory plant response rating (morningglory; [2]) | Redroot pigweed plant response rating (pigweed; [7]) | Rape plant response rating (rape; [2]) | Rape plant response rating (rape; [7]) | Wheat plant response rating (wheat; [2]) | Wheat plant response rating (wheat; [8]) | Nutsedge plant response rating (purple nutsedge; [1]) | Nutsedge plant response rating (purple nutsedge; [2]) | Nutsedge plant response rating (purple nutsedge; [3]) | Nutsedge plant response rating (0 to 10 scale) (purple nutsedge; [4]) | Nutsedge plant response rating (purple nutsedge; [5]) | Nutsedge plant response rating (purple nutsedge; [7]) | Nutsedge plant response rating (purple nutsedge; [8]) | Plant response rating, Nutsedge (purple nutsedge; [9]) | Rice plant response rating (rice; [11]) | Rice plant response rating (rice; [12]) | Rice plant response rating (rice; [13]) | Rice plant response rating (rice; [14]) | Rice plant response rating (rice; [15]) | Rice plant response rating (rice; [17]) | Plant response rating, Rice (rice; [18]) | Barnyardgrass plant response rating (bamyardgrass; [11]) | Barnyardgrass plant response rating (bamyardgrass; [12]) | Barnyardgrass plant response rating (bamyardgrass; [13]) | Barnyardgrass plant response rating (bamyardgrass; [14]) | Barnyardgrass plant response rating (bamyardgrass; [15])
5: Corn plant response rating (0 to 10 scale) (corn; [4]) | Crabgrass plant response rating (crabgrass; [2]) | Crabgrass plant response rating (crabgrass; [7]) | Morningglory plant response rating (morningglory; [1]) | Rape plant response rating (rape; [10]) | Sugarbeets plant response rating (sugar beet; [2]) | Plant response rating, Wheat (wheat; [9]) | Plant response rating, Barnyardgrass (bamyardgrass; [18])
